Test results from publication PMC11096148 (EJNMMI Radiopharmacy and Chemistry, 2024).
“And” between values parts separate entries of the source, which are not always exact repeats. Equal entries are not always repeated.

Assays:
[1] = Stability in human blood serum; type: in vitro ADME; settings: for Serum stability: human blood serum
Experimental: (§1) A detailed synthetic procedure for preparation of NODAGA-TriGalactan including analytical data as well as a complete list of all reagents can be found in the supplementary information. Protocols for determination of logD, protein binding and stability studies have been described elsewhere (Hörmann et al. [2020]).
(§2) Binding to the ASGR was quantified in an assay with freshly isolated mouse hepatocytes using the ^natGa-complex of NODAGA-TriGalactan. Hepatocytes were seeded in a 24-well plate and competitive binding against [^125I]I-asialorosomucoid (ASOR) was studied.

Stability in PBS = type: physicochemical
Experimental: as §1, §2

plasma protein = test: Protein binding; type: in vitro ADME
Experimental: as §1, §2

mouse hepatic organoids = test: Organoid uptake assay and fluorescence imaging; type: cell-based; settings: 1 h at 37 °C
Experimental: For blocking, the experiment was conducted in presence of 10 mM GalNAc. At the end of the incubation time, cells were put on ice for 1 min and spun down (300 rcf, 5 min, 4 °C). The supernatant was carefully removed and organoids were washed twice with 200 µL of ice-cold PBS. Internalized activity was released by treating the organoids with 200 µL of 1 M NaOH for 10 min. Lysates were transferred into scintillation vials and the activity content was measured in a γ-counter. Organoid uptake was determined as the percentage of total radioactivity added.
For microscopic studies organoids were incubated with 333 nM BP-Fluor-647-TriGalactan for 1 h at 37 °C. Cells were pelleted, washed once with PBS and fixated by addition of 200 µL of fixation buffer (BD Cytofix/Cytoperm™, Fisher Scientific, Hampton, USA). After 1 h at room temperature, cells were washed again with PBS and incubated in 100 µL of perm/wash-buffer (Biozym, Hessisch Oldendorf, Germany) for another 30 min. For counter staining organoids were incubated over night at 4 °C with 30 µL of a mixture of 2 µM Hoechst 33,342 (Thermo Scientific), 165 nM Phalloidin CruzFluor™ 555 (Santa Cruz, Dallas, Texas, USA) and Anti-ASGR1 AF488-coupled antibody (2 µg/mL, Bio-Techne, Dublin, Ireland). The next day, organoids were centrifuged, washed three times with PBS and transferred to a CellCarrier-96 Ultra Microplate (PerkinElmer). The Operetta CLS system (revvity, Hamburg, Germany) was used to image the samples. Analysis was performed using the Harmony software 4.9.
Mouse hepatic organoids (Stemcell Technologies, Vancouver, Canada) were cultivated in HepatiCult® organoid growth medium supplemented with 1 % Penicillin/Streptomycin + l-Glutamine (Thermofisher Scientific, Waltham, Massachussetts, USA) embedded in a Geltrex^TM (Thermofisher Scientific) LDEV-free reduced growth factor basement membrane matrix. Medium was replaced every 3-4 days and organoids were passaged every 7-10 days. For passaging, matrix domes were mechanically disrupted and the cell suspension was transferred into a 15 mL falcon tube. […]

[2] = Biodistribution studies in healthy BALB/c mice; type: in vivo
Experimental: For biodistribution studies 6 week old female BALB/c mice (n = 3, Charles Rivers Laboratories, Sulzfeld, Germany) were injected with 0.1 nmol (100 µL, approx. 1 MBq) of ^68Ga-labelled compound via the lateral tail vein and sacrificed by cervical dislocation 10, 30, or 60 min post injection (p.i.). The mice were dissected, blood and organs were weighed and the activity of the samples measured in a γ-counter. For blocking experiments, mice were co-injected with 27.7 µmol of D-galactose.

[3] = Small animal dynamic PET/MR imaging, time activity curves; type: in vivo; settings: C57BL/6J mice
Experimental: All animal experiments were performed according to the German animal welfare act and approved by the local authorities (R5/19). Male C57BL/6J mice were purchased from Janvier Lab (Saint-Berthevin Cedex, France) at 6 weeks. Mice were kept under 1.5% isoflurane in oxygen during the measurements (n = 3). Approximately 1 MBq of the radiotracer was injected intravenously per mouse and 1 h dynamic PET was performed with an Inveon microPET system (Inveon D-PET, Siemens, Knoxville, TN, USA). Mice were then transferred to a 7 Tesla BioSpec 70/30 USR (Bruker Biospin MRI GmbH, Ettlingen, Germany) and a 15 min MR anatomical scan using T2-weighted 3-dimensional turbo spin-echo sequence was acquired. An Inveon Acquisition Workplace was used to reconstruct the acquired images using ordered subset expectation maximization 3D (OSEM 3D) and framing the dynamics. The reconstructed image analysis was performed by using an Inveon Research Workplace. After co-registering acquired MR images with PET images, regions of interest (ROIs) were drawn on liver, heart, muscle, and kidney and time activity curves (TACs) were quantified.

[4] = molecular target: T1, asialoglycoprotein receptor (ASGR) (Mus musculus, UniProt P24721+P34927); test: Competitive binding against [^125I]I-asialoorosomucoid on freshly isolated mouse hepatocytes; settings: [^125I]I-asialoorosomucoid 5 nM, 1 hour on ice
T1 construct: endogenous in cells; host or cells: primary hepatocytes freshly isolated from C57BL/6 mice (collagenase perfusion)
T1 sequence (P34927 1-284): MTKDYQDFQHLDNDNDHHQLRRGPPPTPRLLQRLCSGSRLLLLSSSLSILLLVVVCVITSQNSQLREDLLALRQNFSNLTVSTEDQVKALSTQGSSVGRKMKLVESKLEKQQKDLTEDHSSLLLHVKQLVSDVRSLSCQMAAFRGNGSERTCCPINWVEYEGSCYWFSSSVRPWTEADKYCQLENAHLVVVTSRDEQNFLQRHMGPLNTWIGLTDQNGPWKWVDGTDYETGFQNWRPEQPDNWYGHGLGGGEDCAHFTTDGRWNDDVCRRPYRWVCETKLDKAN
T1 sequence (P24721 1-301): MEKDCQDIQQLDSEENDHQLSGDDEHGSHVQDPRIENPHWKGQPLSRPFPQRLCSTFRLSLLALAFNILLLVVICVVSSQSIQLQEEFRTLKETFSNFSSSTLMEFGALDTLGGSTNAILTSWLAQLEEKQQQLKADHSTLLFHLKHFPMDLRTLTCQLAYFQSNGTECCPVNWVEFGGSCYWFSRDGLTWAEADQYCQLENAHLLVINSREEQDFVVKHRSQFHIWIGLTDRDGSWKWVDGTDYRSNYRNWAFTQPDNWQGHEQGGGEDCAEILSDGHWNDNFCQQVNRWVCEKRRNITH
Experimental: Inhibitory constant (IC50) values were determined in triplicates using freshly isolated mouse hepatocytes (Seglen [1976]). […] In brief, cells were incubated in presence of [^125I]I-asialoorosomucoid (5 nM) with various ligand concentrations ranging from 10^− 5-10^− 11 M for 1 hour on ice. Cells were washed and cell bound activity was released by addition of 200 µL 1 M NaOH for 10 min. The activity content in the lysates was quantified in a γ-counter (2480 Wizard^2 3”, PerkinElmer, Waltham, Massachussetts, USA) and the values were plotted in excel. Fitting of the sigmoidal binding curve and the calculation of the IC50 value was done with excel’s solver plugin.
Binding to the ASGR was quantified in an assay with freshly isolated mouse hepatocytes using the ^natGa-complex of NODAGA-TriGalactan. Hepatocytes were seeded in a 24-well plate and competitive binding against [^125I]I-asialorosomucoid (ASOR) was studied. For comparison, the affinity of GSA for the receptor was also determined.
Isolation of murine hepatocytes followed the collagenase perfusion method published by Seglen [4]. Therefore, C57BL/6 mice were euthanized by cervical dislocation and subsequently the peritoneum was opened. […] Hepatocytes were resuspended in 20 – 30 mL of William’s E + Glutamaxx + 10 % FCS + 1 % Penicillin/Streptomycin (Gibco, Thermofisher Scientific) and counted, typically yielding 30 – 40 × 10^6 cells/animal. […]

ASGR = system: ASGR; parameters: method as in Stokmaier et al. [2009]; settings: higher than galactose; ref Stokmaier et al. [2009]; cited from earlier work
[5] = 30 min p.i., blocking with 27.7 µmol D-galactose

## O=C([O-])CN1CCN(CC(=O)[O-])CCN([C@H](CCC(=O)NCCCC(=O)NC(COCc2cn(CCOCCOCCO[C@@H]3O[C@H](CO)[C@H](O)[C@H](O)[C@H]3O)nn2)(COCc2cn(CCOCCOCCO[C@@H]3O[C@H](CO)[C@H](O)[C@H](O)[C@H]3O)nn2)COCc2cn(CCOCCOCCO[C@@H]3O[C@H](CO)[C@H](O)[C@H](O)[C@H]3O)nn2)C(=O)[O-])CC1.[68Ga+3] [[^68Ga]Ga-NODAGA-TriGalactan]
[1]; 2 min
  Serum stability: 99.8 ± 0%
[1]; 30 min
  Serum stability: 97.6 ± 2.3%
[1]; 60 min
  Serum stability: 98.5 ± 1.2%
[1]; 120 min
  Serum stability: 92.9 ± 4.6%
[1]; over the time course of 2 h
  stability in human blood serum (intact tracer): > 93%
Stability in PBS; 2 min
  PBS stability: 99.8%
Stability in PBS; 30 min
  PBS stability: 99.8%
Stability in PBS; 60 min
  PBS stability: 99.8%
Stability in PBS; 120 min
  PBS stability: 99.8%
Stability in PBS; over the time course of 2 h
  stability in PBS (intact tracer): > 99%
Plasma protein; 2 min of incubation
  Protein binding: 7.6 ± 3.9%
Plasma protein; 30 min of incubation
  Protein binding: 5.5 ± 0.5%
Plasma protein; 60 min of incubation
  Protein binding: 9.2 ± 0.2%
Plasma protein; 120 min of incubation
  Protein binding: 13.6 ± 3.2%
Mouse hepatic organoids; 0.3 nM tracer
  Cellular uptake on mouse hepatic organoids: decent degree of internalization
Mouse hepatic organoids; in presence of 10 mM GalNAc, p < 0.05
  Cellular uptake with blocking on mouse hepatic organoids: receptor specific interaction with the ASGR
[2]; 10 min p.i.
  Biodistribution Blood: 3.3 ± 0.2 % ID/g
  Biodistribution Femur: 0.87 ± 0.52 % ID/g
  Biodistribution Intestine: 1.13 ± 0.07 % ID/g
  Biodistribution Kidneys: 8.2 ± 0.5 % ID/g and 8.15 ± 0.54 % ID/g
  Biodistribution Liver: 33.4 ± 0.9 % ID/g
  Biodistribution Lung: 2.14 ± 0.13 % ID/g
  Biodistribution Muscle: 0.77 ± 0.02 % ID/g
  Biodistribution Pancreas: 0.87 ± 0.12 % ID/g
  Biodistribution Spleen: 0.78 ± 0.05 % ID/g
[2]; 30 min p.i.
  Biodistribution Blood: 0.89 ± 0.09 % ID/g
  Biodistribution Femur: 0.22 ± 0.02 % ID/g
  Biodistribution Heart: 0.40 ± 0.03 % ID/g
  Biodistribution Intestine: 1.95 ± 0.17 % ID/g
  Biodistribution Kidneys: 2.83 ± 0.18 % ID/g
  Biodistribution Liver: 32.2 ± 3.7 % ID/g
  Biodistribution Lung: 0.74 ± 0.03 % ID/g
  Biodistribution Muscle: 0.23 ± 0.03 % ID/g
  Biodistribution Pancreas: 0.31 ± 0.05 % ID/g
  Biodistribution Spleen: 0.27 ± 0.02 % ID/g
  Biodistribution Stomach: 1.05 ± 0.08 % ID/g
[2]; [5]
  Biodistribution Blood: 1.19 ± 0.33 % ID/g
  Biodistribution Femur: 0.37 ± 0.16 % ID/g
  Biodistribution Heart: 0.44 ± 0.03 % ID/g
  Biodistribution Intestine: 0.77 ± 0.19 % ID/g
  Biodistribution Kidneys: 4.19 ± 0.29 % ID/g
  Biodistribution Liver: 14.6 ± 0.15 % ID/g
  Biodistribution Lung: 0.97 ± 0.04 % ID/g
  Biodistribution Muscle: 0.43 ± 0.20 % ID/g
  Biodistribution Pancreas: 0.45 ± 0.01 % ID/g
  Biodistribution Spleen: 0.32 ± 0.03 % ID/g
  Biodistribution Stomach: 0.68 ± 0.11 % ID/g
[2]; 60 min p.i.
  Biodistribution Blood: 0.3 ± 0.04 % ID/g and 0.34 ± 0.04 % ID/g
  Biodistribution Femur: 0.26 ± 0.19 % ID/g
  Biodistribution Heart: 0.17 ± 0.00 % ID/g
  Biodistribution Intestine: 3.0 ± 0.4 % ID/g and 2.99 ± 0.43 % ID/g
  Biodistribution Kidneys: 1.51 ± 0.10 % ID/g
  Biodistribution Liver: 27.7 ± 3.1 % ID/g
  Biodistribution Lung: 0.38 ± 0.10 % ID/g
  Biodistribution Muscle: 0.17 ± 0.02 % ID/g
  Biodistribution Pancreas: 0.19 ± 0.09 % ID/g
  Biodistribution Spleen: 0.16 ± 0.02 % ID/g
  Biodistribution Stomach: 0.92 ± 0.04 % ID/g
[3]
  Time of kidney activity peak, PET TAC: ~1.5 min
[3]; 1 h dynamic PET
  Background muscle uptake, PET TAC: less than 3 % ID/mL
[3]; within the first three minutes
  Activity in the blood (measured in the heart), PET TAC: below 5 % ID/mL

## CC1(CCCCCC(=O)NCCCC(=O)NC(COCc2cn(CCOCCOCCO[C@@H]3O[C@H](CO)[C@H](O)[C@H](O)[C@H]3O)nn2)(COCc2cn(CCOCCOCCO[C@@H]3O[C@H](CO)[C@H](O)[C@H](O)[C@H]3O)nn2)COCc2cn(CCOCCOCCO[C@@H]3O[C@H](CO)[C@H](O)[C@H](O)[C@H]3O)nn2)C(/C=C/C=C/C=C2/N(CCCS(=O)(=O)O)c3ccc(S(=O)(=O)O)cc3C2(C)C)=[N+](CCCS(=O)(=O)[O-])c2ccc(S(=O)(=O)O)cc21 (stereo partly shown) [BP-Fluor-647-TriGalactan]
Mouse hepatic organoids; 333 nM, co-staining with anti-ASGR antibody
  Fluorescence imaging of mouse hepatic organoids: internalization of the trimer into the organoids

## O=C([O-])CN1CCN(CC(=O)[O-])CCN([C@H](CCC(=O)NCCCC(=O)NC(COCc2cn(CCOCCOCCO[C@@H]3O[C@H](CO)[C@H](O)[C@H](O)[C@H]3O)nn2)(COCc2cn(CCOCCOCCO[C@@H]3O[C@H](CO)[C@H](O)[C@H](O)[C@H]3O)nn2)COCc2cn(CCOCCOCCO[C@@H]3O[C@H](CO)[C@H](O)[C@H](O)[C@H]3O)nn2)C(=O)[O-])CC1.[Ga+3] [[^natGa]Ga-NODAGA-TriGalactan]
[4]
  IC50: 0.0732 ± 0.0675 µM

## CC(=O)N[C@H]1C(O)O[C@H](CO)[C@H](O)[C@@H]1O (mixture of isomers) [GalNAc, N-acetylgalactosamine]
ASGR
  affinity for the ASGR relative to galactose: 10 times
